From US11001590B2, “Pyrazolopyrimidine derivatives” (BAYER ANIMAL HEALTH GMBH, priority 2016, dated 2021) come the findings set out here.

As usually defined, the EC50 is the concentration giving half of the maximal effect. One may read the chromatographic logP as a lipophilicity value derived from retention on a column. A high value points to a more lipophilic compound.

Sequence of C. elegans Slo-1a (Q95V25 whole entry): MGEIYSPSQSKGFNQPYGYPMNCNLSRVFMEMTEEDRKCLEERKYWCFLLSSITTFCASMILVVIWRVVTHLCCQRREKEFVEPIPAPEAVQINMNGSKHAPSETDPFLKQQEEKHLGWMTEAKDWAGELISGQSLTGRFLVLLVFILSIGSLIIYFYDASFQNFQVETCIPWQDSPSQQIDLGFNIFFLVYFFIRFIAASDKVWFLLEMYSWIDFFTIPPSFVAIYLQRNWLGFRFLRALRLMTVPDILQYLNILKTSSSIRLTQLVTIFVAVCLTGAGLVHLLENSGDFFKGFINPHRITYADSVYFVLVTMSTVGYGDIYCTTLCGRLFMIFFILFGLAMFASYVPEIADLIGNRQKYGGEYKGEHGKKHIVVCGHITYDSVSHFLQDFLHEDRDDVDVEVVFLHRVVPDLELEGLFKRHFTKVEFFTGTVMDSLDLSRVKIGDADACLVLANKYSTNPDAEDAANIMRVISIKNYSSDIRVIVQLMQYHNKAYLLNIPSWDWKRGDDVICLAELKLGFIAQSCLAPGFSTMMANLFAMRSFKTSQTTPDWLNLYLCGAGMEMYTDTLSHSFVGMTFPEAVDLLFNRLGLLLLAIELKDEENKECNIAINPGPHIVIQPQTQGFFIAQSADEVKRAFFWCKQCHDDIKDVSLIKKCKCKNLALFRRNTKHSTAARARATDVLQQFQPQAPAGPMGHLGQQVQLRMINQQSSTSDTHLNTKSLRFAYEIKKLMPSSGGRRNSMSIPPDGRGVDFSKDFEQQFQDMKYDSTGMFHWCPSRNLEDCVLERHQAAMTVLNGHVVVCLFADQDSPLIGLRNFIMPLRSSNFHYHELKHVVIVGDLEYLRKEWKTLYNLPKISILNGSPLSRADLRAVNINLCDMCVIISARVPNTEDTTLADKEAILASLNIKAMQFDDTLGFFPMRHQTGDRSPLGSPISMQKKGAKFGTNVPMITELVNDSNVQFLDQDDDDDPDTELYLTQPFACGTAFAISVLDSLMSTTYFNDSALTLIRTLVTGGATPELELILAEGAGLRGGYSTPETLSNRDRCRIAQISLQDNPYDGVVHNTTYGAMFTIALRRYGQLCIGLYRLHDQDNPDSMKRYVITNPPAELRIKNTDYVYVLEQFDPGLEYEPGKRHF

The first data set deals with Nippostrongylus brasiliensis. Kind of data set: In vitro assay 2: Nippostrongylus brasiliensis (NIPOBR), acetylcholine esterase readout. The settings on record: adult worms, 10 μg/ml (10 ppm), read-out: activity (reduction of AChE compared to negative control). The procedure:
In Vitro Assay 2: Nippostronqylus Brasiliensis (NIPOBR)
Adult Nippostrongylus brasiliensis were washed with saline buffer containing 100 U/ml penicillin, 0.1 mg/ml streptomycin and 2.5 μg/ml amphotericin B. Test compounds were dissolved in DMSO and worms were incubated in medium in a final concentration of 10 μg/ml (10 ppm) respectively 1 μg/ml (1 ppm). An aliquot of the medium was used to determine the acetylcholine esterase activity in comparison to a negative control. The principle of measuring acetylcholine esterase as readout for anthelmintic activity was described in Rapson et al (1986) and Rapson et al (1987).
For the compound `Cc1nn2c(C(C)C)c(C(=O)N[C@H]3CCOc4ccccc43)cnc2c1-c1ccc(Br)cc1` [Example 206], the inhibition at 10 µg/mL is above 80%.
Consider `COCc1cccc(-c2c(C)nn3c(C(C)C)c(C(=O)N[C@H]4CCOc5ccccc54)cnc23)c1` [Example 392], for which the inhibition at 10 µg/mL was above 80%.
Still for that read-out and setting: the same measure for `COc1ccc(-c2c(C)nn3c(C(C)C)c(C(=O)N[C@H]4CCOc5ccccc54)cnc23)cc1OC` [Example 242]: above 80%; for `CC(C)c1c(C(=O)N[C@H]2CCOc3ccccc32)cnc2c(-c3cc(Cl)cc(Cl)c3)c(S(C)(=O)=O)nn12` [Example 219]: above 80%; for `Cc1nn2c(C3CC3)c(C(=O)N[C@H]3CCOc4ccccc43)cnc2c1-c1cnn(CC2CC2)c1` [Example 470]: above 80%.
The same measure, in the same setting: the same measure for `Cc1nn2c(C(C)C)c(C(=O)N[C@H]3CCOc4ccccc43)cnc2c1-c1cccc(N2CC(F)(F)C2)c1` [Example 440]: above 80%.

Another data set deals with Dirofilaria immitis microfilariae. As to the kind of experiment: In vitro assay 3: Dirofilaria immitis microfilariae (DIROIM L1), motility. Conditions: 72 h, reduction of motility vs negative control, 72 h incubation.
Turning to `Cc1nn2c(C(C)C)c(C(=O)N[C@H]3CCOc4ccccc43)cnc2c1-c1ccc(Br)cc1` [Example 206], the EC50 was below 1 mg/L.
The same measure, in the same setting: the same measure for `COCc1cccc(-c2c(C)nn3c(C(C)C)c(C(=O)N[C@H]4CCOc5ccccc54)cnc23)c1` [Example 392]: below 0.1 mg/L; for `COc1ccc(-c2c(C)nn3c(C(C)C)c(C(=O)N[C@H]4CCOc5ccccc54)cnc23)cc1OC` [Example 242]: below 10 mg/L.
As to `CC(C)c1c(C(=O)N[C@H]2CCOc3ccccc32)cnc2c(-c3cc(Cl)cc(Cl)c3)c(S(C)(=O)=O)nn12` [Example 219], the EC50 is below 1 mg/L.
As for `Cc1nn2c(C3CC3)c(C(=O)N[C@H]3CCOc4ccccc43)cnc2c1-c1cnn(CC2CC2)c1` [Example 470], the EC50 is below 10 mg/L.
Same read-out and setting: the same measure for `Cc1nn2c(C(C)C)c(C(=O)N[C@H]3CCOc4ccccc43)cnc2c1-c1cccc(N2CC(F)(F)C2)c1` [Example 440]: below 1 mg/L; for `Cc1nn2c(C(C)C)c(C(=O)N[C@H]3CCOc4ccccc43)cnc2c1-c1c(Cl)cccc1Cl` [Example 154]: below 0.1 mg/L; for `Cc1nn2c(C(C)C)c(C(=O)N[C@H]3CCCc4ccccc43)cnc2c1-c1c(F)cccc1Cl` [Example 131]: below 0.1 mg/L.
Same read-out and setting: the same measure for `CCC(C)c1c(C(=O)N[C@H]2CCOc3ccccc32)cnc2c(-c3c(F)cccc3Cl)c(C)nn12` (stereo partly drawn) [Example 226]: below 0.1 mg/L; for `Cc1nn2c(C(C)C)c(C(=O)N[C@H]3CCc4ccccc43)cnc2c1-c1c(F)cccc1Cl` [Example 132]: below 0.1 mg/L.
On the same count and under the same terms, the same measure for `Cc1nn2c(C3CC3)c(C(=O)N[C@H]3CCc4ccccc43)cnc2c1-c1cccc(F)c1F` [Example 424]: below 0.1 mg/L; for `Cc1nn2c(C(C)C)c(C(=O)N[C@H]3CCc4ccccc43)cnc2c1-c1cc(F)ccc1F` [Example 116]: below 0.1 mg/L.
Take `Cc1nn2c(C(C)C)c(C(=O)N[C@H]3CCCc4ccccc43)cnc2c1-c1cccc(F)c1F` [Example 134]: the EC50 was below 0.1 mg/L.
Regarding `Cc1nn2c(C(C)C)c(C(=O)N[C@H]3CCc4ccccc43)cnc2c1-c1ccc(F)cc1` [Example 302], the EC50 was below 0.1 mg/L.
Consider `Cc1nn2c(N3CCOCC3)c(C(=O)N[C@H]3CCOc4ccccc43)cnc2c1-c1c(F)ccc(F)c1F` [Example 535], for which the EC50 was below 0.1 mg/L.

A further data set has as its system Dirofilaria immitis third-stage larvae. As to the kind of experiment: In vitro assay 4: Dirofilaria immitis (DIROIM L4), motility of larvae. Conditions: 72 h.
Turning to `Cc1nn2c(C(C)C)c(C(=O)N[C@H]3CCOc4ccccc43)cnc2c1-c1c(Cl)cccc1Cl` [Example 154], the EC50 was below 0.1 mg/L.
Same read-out and setting: in the case of `Cc1nn2c(C(C)C)c(C(=O)N[C@H]3CCCc4ccccc43)cnc2c1-c1c(F)cccc1Cl` [Example 131] it was below 0.1 mg/L.
Same read-out and setting: in the case of `CCC(C)c1c(C(=O)N[C@H]2CCOc3ccccc32)cnc2c(-c3c(F)cccc3Cl)c(C)nn12` (stereo partly drawn) [Example 226] it was below 0.1 mg/L.
Consider `Cc1nn2c(C(C)C)c(C(=O)N[C@H]3CCc4ccccc43)cnc2c1-c1c(F)cccc1Cl` [Example 132], for which the EC50 was below 0.1 mg/L.
Still for that read-out and setting: in the case of `Cc1nn2c(C3CC3)c(C(=O)N[C@H]3CCc4ccccc43)cnc2c1-c1cccc(F)c1F` [Example 424] it was below 0.1 mg/L.
In turn, `Cc1nn2c(C(C)C)c(C(=O)N[C@H]3CCc4ccccc43)cnc2c1-c1cc(F)ccc1F` [Example 116] displayed an EC50 below 0.1 mg/L.
The compound `Cc1nn2c(C(C)C)c(C(=O)N[C@H]3CCCc4ccccc43)cnc2c1-c1cccc(F)c1F` [Example 134] came in with an EC50 below 0.1 mg/L.
On the same count and under the same terms, the same measure for `Cc1nn2c(C(C)C)c(C(=O)N[C@H]3CCc4ccccc43)cnc2c1-c1ccc(F)cc1` [Example 302]: below 0.1 mg/L.
On the same count and under the same terms, the same measure for `Cc1nn2c(N3CCOCC3)c(C(=O)N[C@H]3CCOc4ccccc43)cnc2c1-c1c(F)ccc(F)c1F` [Example 535]: below 0.1 mg/L.

A further data set has as its system Litomosoides sigmodontis third-stage larvae. As to the kind of experiment: In vitro assay 7: Litomosoides sigmodontis L3 (LTMOSI), motility. The settings on record: 72 h, reduction of motility vs negative control, 72 h incubation.
In turn, `Cc1nn2c(C(C)C)c(C(=O)N[C@H]3CCOc4ccccc43)cnc2c1-c1c(Cl)cccc1Cl` [Example 154] had an EC50 below 0.1 mg/L.
On the same count and under the same terms, in the case of `Cc1nn2c(C(C)C)c(C(=O)N[C@H]3CCCc4ccccc43)cnc2c1-c1c(F)cccc1Cl` [Example 131] it was below 0.1 mg/L.
Same read-out and setting: in the case of `CCC(C)c1c(C(=O)N[C@H]2CCOc3ccccc32)cnc2c(-c3c(F)cccc3Cl)c(C)nn12` (stereo partly drawn) [Example 226] it was below 0.1 mg/L; in that of `Cc1nn2c(C(C)C)c(C(=O)N[C@H]3CCc4ccccc43)cnc2c1-c1c(F)cccc1Cl` [Example 132], below 0.1 mg/L.
On the same count and under the same terms, in the case of `Cc1nn2c(C3CC3)c(C(=O)N[C@H]3CCc4ccccc43)cnc2c1-c1cccc(F)c1F` [Example 424] it was below 0.1 mg/L; in that of `Cc1nn2c(C(C)C)c(C(=O)N[C@H]3CCc4ccccc43)cnc2c1-c1cc(F)ccc1F` [Example 116], below 0.1 mg/L.
Compound `Cc1nn2c(C(C)C)c(C(=O)N[C@H]3CCCc4ccccc43)cnc2c1-c1cccc(F)c1F` [Example 134] had an EC50 below 0.1 mg/L.
`Cc1nn2c(C(C)C)c(C(=O)N[C@H]3CCc4ccccc43)cnc2c1-c1ccc(F)cc1` [Example 302]: the EC50 is below 0.1 mg/L.
On the same count and under the same terms, in the case of `Cc1nn2c(N3CCOCC3)c(C(=O)N[C@H]3CCOc4ccccc43)cnc2c1-c1c(F)ccc(F)c1F` [Example 535] it was below 0.1 mg/L.

Test system in a further data set: not listed separately
Kind of data set: log P by HPLC on reversed phase columns (Method L0; [a] acidic, [b] neutral range).
Conditions: not given
For the compound `Cc1nn2c(C(C)C)c(C(=O)N[C@H]3CCOc4ccccc43)cnc2c1-c1ccc(Br)cc1` [Example 206], the chromatographic logP stood at 5.02.
Take `COCc1cccc(-c2c(C)nn3c(C(C)C)c(C(=O)N[C@H]4CCOc5ccccc54)cnc23)c1` [Example 392]: the chromatographic logP stood at 4.16.
In the case of `COc1ccc(-c2c(C)nn3c(C(C)C)c(C(=O)N[C@H]4CCOc5ccccc54)cnc23)cc1OC` [Example 242], the chromatographic logP was 3.9.
The same measure, in the same setting: the same measure for `CC(C)c1c(C(=O)N[C@H]2CCOc3ccccc32)cnc2c(-c3cc(Cl)cc(Cl)c3)c(S(C)(=O)=O)nn12` [Example 219]: 4.16; for `Cc1nn2c(C3CC3)c(C(=O)N[C@H]3CCOc4ccccc43)cnc2c1-c1cnn(CC2CC2)c1` [Example 470]: 2.92; for `Cc1nn2c(C(C)C)c(C(=O)N[C@H]3CCOc4ccccc43)cnc2c1-c1cccc(N2CC(F)(F)C2)c1` [Example 440]: 4.64.
Compound `Cc1nn2c(C(C)C)c(C(=O)N[C@H]3CCOc4ccccc43)cnc2c1-c1c(Cl)cccc1Cl` [Example 154] returned a chromatographic logP of 4.56.
The same measure, in the same setting: the same measure for `Cc1nn2c(C(C)C)c(C(=O)N[C@H]3CCCc4ccccc43)cnc2c1-c1c(F)cccc1Cl` [Example 131]: 5.02; for `CCC(C)c1c(C(=O)N[C@H]2CCOc3ccccc32)cnc2c(-c3c(F)cccc3Cl)c(C)nn12` (stereo partly drawn) [Example 226]: 4.72.
Compound `Cc1nn2c(C(C)C)c(C(=O)N[C@H]3CCc4ccccc43)cnc2c1-c1c(F)cccc1Cl` [Example 132] gave a chromatographic logP of 4.71.
Still for that read-out and setting: in the case of `Cc1nn2c(C3CC3)c(C(=O)N[C@H]3CCc4ccccc43)cnc2c1-c1cccc(F)c1F` [Example 424] it was 3.84; in that of `Cc1nn2c(C(C)C)c(C(=O)N[C@H]3CCc4ccccc43)cnc2c1-c1cc(F)ccc1F` [Example 116], 4.59; in that of `Cc1nn2c(C(C)C)c(C(=O)N[C@H]3CCCc4ccccc43)cnc2c1-c1cccc(F)c1F` [Example 134], 4.9.
`Cc1nn2c(C(C)C)c(C(=O)N[C@H]3CCc4ccccc43)cnc2c1-c1ccc(F)cc1` [Example 302] gave a chromatographic logP of 4.63.
As for `Cc1nn2c(N3CCOCC3)c(C(=O)N[C@H]3CCOc4ccccc43)cnc2c1-c1c(F)ccc(F)c1F` [Example 535], the chromatographic logP stood at 3.29.

The next data set concerns the target C. elegans Slo-1a (Caenorhabditis elegans, UniProt Q95V25). Kind of data set: In vitro assay 1: C. elegans Slo-1a, action at a recombinant C. elegans CHO cell line (membrane potential measurement).
Conditions: not given
With `Cc1nn2c(C(C)C)c(C(=O)N[C@H]3CCOc4ccccc43)cnc2c1-c1ccc(Br)cc1` [Example 206], the concentration for a half-maximal effect (EC50) is 0.0126 µM.
`COCc1cccc(-c2c(C)nn3c(C(C)C)c(C(=O)N[C@H]4CCOc5ccccc54)cnc23)c1` [Example 392]: the EC50 is 0.01 µM.
The same measure, in the same setting: the same measure for `COc1ccc(-c2c(C)nn3c(C(C)C)c(C(=O)N[C@H]4CCOc5ccccc54)cnc23)cc1OC` [Example 242]: 0.0794 µM.
Still for that read-out and setting: in the case of `CC(C)c1c(C(=O)N[C@H]2CCOc3ccccc32)cnc2c(-c3cc(Cl)cc(Cl)c3)c(S(C)(=O)=O)nn12` [Example 219] it was 0.02 µM.
Still for that read-out and setting: the same measure for `Cc1nn2c(C3CC3)c(C(=O)N[C@H]3CCOc4ccccc43)cnc2c1-c1cnn(CC2CC2)c1` [Example 470]: 0.00794 µM; for `Cc1nn2c(C(C)C)c(C(=O)N[C@H]3CCOc4ccccc43)cnc2c1-c1cccc(N2CC(F)(F)C2)c1` [Example 440]: 0.0126 µM; for `Cc1nn2c(C(C)C)c(C(=O)N[C@H]3CCOc4ccccc43)cnc2c1-c1c(Cl)cccc1Cl` [Example 154]: 0.00631 µM.
`Cc1nn2c(C(C)C)c(C(=O)N[C@H]3CCCc4ccccc43)cnc2c1-c1c(F)cccc1Cl` [Example 131]: the EC50 was 0.00794 µM.
Same read-out and setting: the same measure for `CCC(C)c1c(C(=O)N[C@H]2CCOc3ccccc32)cnc2c(-c3c(F)cccc3Cl)c(C)nn12` (stereo partly drawn) [Example 226]: 0.02 µM; for `Cc1nn2c(C(C)C)c(C(=O)N[C@H]3CCc4ccccc43)cnc2c1-c1c(F)cccc1Cl` [Example 132]: 0.00631 µM; for `Cc1nn2c(C3CC3)c(C(=O)N[C@H]3CCc4ccccc43)cnc2c1-c1cccc(F)c1F` [Example 424]: 0.00251 µM.
For the compound `Cc1nn2c(C(C)C)c(C(=O)N[C@H]3CCc4ccccc43)cnc2c1-c1cc(F)ccc1F` [Example 116], the EC50 is 0.01 µM.
The same measure, in the same setting: the same measure for `Cc1nn2c(C(C)C)c(C(=O)N[C@H]3CCCc4ccccc43)cnc2c1-c1cccc(F)c1F` [Example 134]: 0.0126 µM.
The same measure, in the same setting: in the case of `Cc1nn2c(C(C)C)c(C(=O)N[C@H]3CCc4ccccc43)cnc2c1-c1ccc(F)cc1` [Example 302] it was 0.0126 µM; in that of `Cc1nn2c(N3CCOCC3)c(C(=O)N[C@H]3CCOc4ccccc43)cnc2c1-c1c(F)ccc(F)c1F` [Example 535], 0.00251 µM.
